Three compounds from patent US6376209B2, “Increasing the FVII sensitivity of a thromboplastin reagent” (Dade Behring Marburg GmbH, priority 1997, dated 2002) can be followed below.

What all share (test): Quick's thromboplastin time (PT), Schnitger & Gross
Common to all, as to assay type: biochemical

Assay [1] concerns FVII-deficient plasma. Details: Coagulation time, Sample: FVII: unit not given beside the values. To be noted: for Coagulation time FVII-MP / FVII sens.: FVII-MP/100%: 0.5 sec; for Coagulation time, Sample: FVII / FVII sens.: FVII/100%: ascorbic acid 1 mM, Fe(II)SO4 or CuCl 0.01 mM, stabilization after 6 h (iron: after 1 h). As for the experimental part:
(§1) Quick's thromboplastin time (PT) was then determined using a Schnitger & Gross as follows:
(§2) Heat reagents and tubes to 37° C.;
(§3) Introduce […] of control plasma N or FVII-deficient plasma into the tubes;
(§4) Incubate for 1 min in the thermoblock;
(§5) Add 200 μl of thromboplastin and at the same time start the measuring operation; shake the tube briefly and place it in the measuring position of the Schnitger & Gross, and insert the electrode holder up to the limit stop;
(§6) Read off the coagulation time.
(§7) Quick's thromboplastin time (PT) is then determined using a Schnitger & Gross as follows:
(§8) Introduce 100 μl of plasma into the tubes;
(§9) Add 200 μl of thromboplastin and at the same time start the measuring operation;
(§10) shake the tube briefly, place it in the measuring position of the Schnitger & Gross, and insert the electrode holder up to the limit stop;

Assay [2] has as its system Standard human plasma. To be noted: for Coagulation time 100%: 0.5 sec; for Coagulation time, Sample: 100%: ascorbic acid 1 mM, stabilization after 6 h (iron: after 1 h). Here is the method: as §1, §2, §3, §4, §5, §6, §7, §8, §9, §10
Assay [3] concerns control plasma Patho II. Here is the method: as §7, §2, §8, §4, §9, §10, §6
The spread was calculated from the ratio of the coagulation times for the dilution of the StHPl and the StHPl, and the FVII sensitivity was calculated from the ratio of the coagulation times for FVII-MP and STHPL.
Standard human plasma, the control plasma Patho II and an FVII-deficient plasma were used as samples. The reagents were stored at 4° C. and 37° C. and the coagulation time was repeated after 7 and 14 days. The spread was calculated from the ratio of the coagulation times of the Patho II and the StHPl, and the FVII sensitivity was calculated from the ratio of the coagulation times for FVII-MP and the STHPL.

Where [4] appears, read: 0.7 mg/l added to Thromborel S heated 95° C.
Setting [5] is: 0.7 mg/l added to Thromborel S heated 95° C., 0.5 sec.
Where [6] appears, read: 1.5 mM added to Thromborel S heated 95° C.
Where [7] appears, read: 1.5 mM added to Thromborel S heated 95° C., 0.5 sec.
The mark [8] stands for this setting: reagent stored 18 h/4° C., ascorbic acid 1 mM, Fe(II)SO4 or CuCl 0.01 mM, stabilization after 6 h (iron: after 1 h).
The mark [9] stands for this setting: reagent stored 7 days 4° C., ascorbic acid 1 mM, Fe(II)SO4 or CuCl 0.01 mM, stabilization after 6 h (iron: after 1 h).
Where [10] appears, read: reagent stored 7 days 37° C., ascorbic acid 1 mM, Fe(II)SO4 or CuCl 0.01 mM, stabilization after 6 h (iron: after 1 h).

Where a SMILES comes first, the peptide text is derived from it. [ ]: non-standard residue; d: D form. The star is where a group is joined. Sta = CC(C)C[C@H](N)[C@@H](O)CC(=O)O; Isovaleryl = CC(C)CC(=O)*

Take `CC(C)CC(=O)N[C@H](C(=O)N[C@H](C(=O)N[C@@H](CC(C)C)[C@@H](O)CC(=O)N[C@@H](C)C(=O)N[C@@H](CC(C)C)[C@@H](O)CC(=O)O)C(C)C)C(C)C` [Pepstatin] (Isovaleryl-VV[Sta]A[Sta]-OH): in assay [1] (setting [4]), the “Coagulation time FVII-MP” value worked out at 115 s and the “FVII sens.: FVII-MP/100%” value was determined as 10.9. Besides, in assay [2] (setting [4]), the “Coagulation time 100%” value came out at 10.6 s. In addition, in assay [3] (setting [5]), the “Coagulation time Patho II” value came to 21.6 s and the “Spread: Patho II/100%” value was found to be 2.0.

With `O=S(=O)(F)Cc1ccccc1` [PMSF, phenylmethylsulfonyl fluoride], in assay [1] (setting [6]), the “Coagulation time FVII-MP” value came out at 259 s and the “FVII sens.: FVII-MP/100%” value came to 24.2. In addition, the “Coagulation time 100%” value in assay [2] (setting [6]) amounted to 10.7 s. In addition, in assay [3] (setting [7]), the “Coagulation time Patho II” value was determined as 21.9 s and the “Spread: Patho II/100%” value is listed as 2.0.

For `O=C1O[C@H]([C@@H](O)CO)C(O)=C1O` [ascorbic acid], the “Coagulation time, Sample: FVII” value in assay [1] (reagent stored 18 h/4° C.) came out at 157.7; in assay [1] (reagent stored 7 days 4° C.) it was 154.3; in assay [1] (reagent stored 7 days 37° C.), 181.1; in assay [1] (reagent stored 14 days 4° C.), 161.6; in assay [1] (reagent stored 14 days 37° C.) it was 195.8. Moreover, the “FVII sens.: FVII/100%” value in assay [1] (reagent stored 18 h/4° C.) worked out at 11.5; in assay [1] (reagent stored 7 days 4° C.), 11.0; in assay [1] (reagent stored 7 days 37° C.), 12.3; in assay [1] (reagent stored 14 days 4° C.), 11.5; in assay [1] (reagent stored 14 days 37° C.), 12.8. Also, the “Coagulation time, Sample: 100%” value in assay [2] (reagent stored 18 h/4° C., Fe(II)SO4 or CuCl 0.01 mM in Thromborel S heated 85° C., 3 sec) amounted to 13.7; in assay [2] (reagent stored 7 days 4° C., Fe(II)SO4 or CuCl 0.01 mM) it was 14; in assay [2] (reagent stored 7 days 37° C., Fe(II)SO4 or CuCl 0.01 mM) it was 14.7; in assay [2] (reagent stored 14 days 4° C., Fe(II)SO4 or CuCl 0.01 mM), 14.1; in assay [2] (reagent stored 14 days 37° C., Fe(II)SO4 or CuCl 0.01 mM), 15.3. Also, the “Coagulation time, Sample: Patho II” value came out at 51.4 in assay [3] (setting [8]); 51.3 in assay [3] (setting [9]); 51.5 in assay [3] (setting [10]); 51.1 in assay [3] (reagent stored 14 days 4° C., ascorbic acid 1 mM, Fe(II)SO4 or CuCl 0.01 mM, stabilization after 6 h (iron: after 1 h)); 53.1 in assay [3] (reagent stored 14 days 37° C., ascorbic acid 1 mM, Fe(II)SO4 or CuCl 0.01 mM, stabilization after 6 h (iron: after 1 h)). Further, the “Spread: Patho II/100%” value in assay [3] (setting [8]) came to 3.8; in assay [3] (setting [9]) it was 3.7; in assay [3] (setting [10]), 3.5.
